Results on ten compounds are retold here after ChEMBL document CHEMBL1201862, “PubChem BioAssay data set” (2004).

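Following 48 hours of exposure in 96-well plates, responses at five concentrations were used to interpolate endpoints linearly. GI50 marks 50% less growth.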 Activity calls are given as the source filed them. Cut-off read from the data, not from the text of the source: active = GI50 up to about 1.1 µM and inactive = higher.

Among the test systems are ACHN; IGROV-1; HOP-62; PC-3; SK-MEL-28; T47D; HT-29; SNB-75; SK-MEL-2; NCI/ADR-RES; NCI-H522; HL-60; NCI-H460; MDA-MB-435; MDA-MB-231; MOLT-4; A498; RPMI-8226; 786-0.
Test in all cases: NCI tumour cell line growth inhibition, 48 h

As for `C=C1C(=O)O[C@@H]2[C@H]1C[C@H](I)[C@@]1(C)CC[C@H](O1)[C@](C)(I)CCCC(C)[C@@H]2O` (some centres undefined), the GI50 is 1.79 µM (inactive) with ACHN; 2.01 µM (inactive) in the assay with IGROV-1; 19.4 µM (inactive) with HOP-62; 6.03 µM (inactive) with PC-3; 6.11 µM (inactive) with SK-MEL-28; 3.79 µM (inactive) in the assay on T47D. For the same compound, the GI50 is 1.93 µM (inactive) with HT-29; 2.33 µM (inactive) with SNB-75; 12.9 µM (inactive) in the assay on SK-MEL-2; 3.17 µM (inactive) with NCI/ADR-RES; 0.311 µM (active) with NCI-H522; 1.31 µM (inactive) in the assay on HL-60. Further, the GI50 in the assay with NCI-H460 was 14.5 µM (inactive); in the assay on MDA-MB-435 it was 4.9 µM (inactive); with MDA-MB-231 it was 4.22 µM (inactive); with MOLT-4, 1.49 µM (inactive); in the assay on A498, 14.6 µM (inactive); with RPMI-8226, 2.61 µM (inactive). Besides, the GI50 in the assay on 786-0 is 1.49 µM (inactive).
On to `CC(=O)OCC1OC(NC(=S)Nn2c(=O)[nH]c3ccccc3c2=O)C(OC(C)=O)C(OC(C)=O)C1OC(C)=O` (centres undefined), for which the GI50 in the assay on ACHN, with IGROV-1, in the assay with HOP-62, in the assay with PC-3, in the assay on SK-MEL-28 and in the assay with T47D was > 100 µM (inactive) each time. Further, the GI50 was > 100 µM (inactive) in the assay with HT-29; > 100 µM (inactive) in the assay with SNB-75; > 100 µM (inactive) in the assay with SK-MEL-2; > 100 µM (inactive) in the assay on NCI/ADR-RES; > 100 µM (inactive) in the assay on NCI-H522; 57.4 µM (inactive) in the assay on HL-60. In addition, the GI50 with NCI-H460, in the assay with MDA-MB-435, in the assay on MDA-MB-231, in the assay with MOLT-4, with A498 and in the assay with RPMI-8226 was > 100 µM (inactive) throughout. Moreover, the GI50 in the assay on 786-0 was > 100 µM (inactive).
As to `CC(Oc1ccc(Cl)cc1Cl)C(=O)NN1C(=O)CC(=O)N(c2ccccc2)C1=S` (centres undefined), the GI50 with ACHN is 48.1 µM (inactive); in the assay on IGROV-1 it was 55.3 µM (inactive); in the assay with HOP-62 it was 56.2 µM (inactive); with PC-3, 40.5 µM (inactive); in the assay on SK-MEL-28, 98.6 µM (inactive); in the assay on T47D, 43.2 µM (inactive). Besides, the GI50 was 70.1 µM (inactive) in the assay with HT-29; 54.1 µM (inactive) in the assay with SNB-75; 42.2 µM (inactive) in the assay with SK-MEL-2; 39.9 µM (inactive) with NCI/ADR-RES; 31.5 µM (inactive) in the assay with NCI-H522; 0.527 µM (active) with HL-60. Also, the GI50 was 62.8 µM (inactive) with NCI-H460; 41.9 µM (inactive) with MDA-MB-435; 65.9 µM (inactive) with MDA-MB-231; 46.3 µM (inactive) in the assay with MOLT-4; 26.9 µM (inactive) in the assay with A498; 30.7 µM (inactive) with RPMI-8226. Also, in the assay with 786-0, the GI50 is 60.3 µM (inactive).
Take `O=c1c(-c2ccc(O)cc2)coc2cc(OC3OC(CO)C(O)C(O)C3O)cc(O)c12` (centres undefined): the GI50 was 54.5 µM (inactive) in the assay on ACHN; > 10 µM (inactive) in the assay on IGROV-1; > 10 µM (inactive) with HOP-62; 63.8 µM (inactive) with PC-3; > 10 µM (inactive) with SK-MEL-28; > 10 µM (inactive) in the assay with T47D. Further, the GI50 was > 100 µM (inactive) in the assay with HT-29; 35.7 µM (inactive) in the assay on SNB-75; > 10 µM (inactive) in the assay with SK-MEL-2; > 10 µM (inactive) with NCI/ADR-RES; 45.7 µM (inactive) in the assay on NCI-H522; > 10 µM (inactive) in the assay on HL-60. Moreover, the GI50 with NCI-H460 is 46.9 µM (inactive); in the assay on MDA-MB-435, > 10 µM (inactive); with MDA-MB-231, > 100 µM (inactive); with MOLT-4, 43.1 µM (inactive); in the assay on A498, > 100 µM (inactive); in the assay with RPMI-8226, 51.8 µM (inactive). Also, in the assay with 786-0, the GI50 is 75.5 µM (inactive).
As to `c1nncn1C12C3C4C5C3C1C5C42` (centres undefined), the GI50 in the assay on ACHN, in the assay on IGROV-1, with HOP-62, in the assay with PC-3, in the assay with SK-MEL-28 and in the assay with T47D was > 100 µM (inactive) throughout. The GI50 with HT-29, with SNB-75, in the assay with SK-MEL-2, in the assay with NCI/ADR-RES, in the assay with NCI-H522 and in the assay on HL-60 was > 100 µM (inactive) each time. The GI50 in the assay with NCI-H460, with MDA-MB-435, in the assay on MDA-MB-231, in the assay on MOLT-4, in the assay on A498 and with RPMI-8226 was > 100 µM (inactive) in each case. Besides, the GI50 with 786-0 was > 100 µM (inactive).
On to `O=C1Nc2ccccc2C(=O)/C1=C/NC(=S)NC1CCCCC1`, for which the GI50 in the assay on ACHN, in the assay with IGROV-1, with HOP-62, in the assay with PC-3, in the assay with T47D and with HT-29 was > 100 µM (inactive) throughout. Further, the GI50 in the assay on SNB-75, in the assay with SK-MEL-2, in the assay with NCI/ADR-RES, with NCI-H522, in the assay with HL-60 and with NCI-H460 was > 100 µM (inactive) in each case. Also, the GI50 in the assay with MDA-MB-435, in the assay on MDA-MB-231, with MOLT-4, in the assay with A498, in the assay on RPMI-8226 and with 786-0 was > 100 µM (inactive) throughout.
On to `C/C(=N/NC(=S)Nc1ccccc1Cl)c1ccccn1`, for which the GI50 in the assay with ACHN is 0.0402 µM (active); with IGROV-1 it was < 0.0137 µM (active); with HOP-62, < 0.0415 µM (active); in the assay on PC-3, < 0.0143 µM (active); in the assay on SK-MEL-28, 4.06 µM (inactive); with T47D, < 0.0371 µM (active). Also, the GI50 is < 0.01 µM (active) in the assay on HT-29; 8.73 µM (inactive) with SNB-75; 1.98 µM (inactive) with SK-MEL-2; 0.0914 µM (active) in the assay on NCI/ADR-RES; 1.11 µM (active) in the assay on NCI-H522; < 0.0113 µM (active) in the assay with HL-60. In addition, the GI50 with NCI-H460 is 0.0382 µM (active); in the assay with MDA-MB-435, 0.665 µM (active); in the assay on MDA-MB-231 it was < 0.0164 µM (active); with MOLT-4, < 0.0109 µM (active); in the assay with A498 it was 1.46 µM (inactive); in the assay on RPMI-8226, < 0.0149 µM (active). For the same compound, the GI50 in the assay with 786-0 is 0.0889 µM (active).
As to `CC1CNC(c2cccc(OCc3ccc(COc4cccc(C5=NC(C)CN5)c4)cc3)c2)=N1` (centres undefined), the GI50 in the assay on ACHN is > 100 µM (inactive); with IGROV-1, > 100 µM (inactive); in the assay on HOP-62, 40.6 µM (inactive); with PC-3 it was 28.9 µM (inactive); in the assay with SK-MEL-28 it was 61.7 µM (inactive); with T47D, 35.9 µM (inactive). In addition, the GI50 in the assay with HT-29 was 25.4 µM (inactive); in the assay with SNB-75 it was 22.2 µM (inactive); in the assay on SK-MEL-2 it was 20.8 µM (inactive); in the assay with NCI/ADR-RES, > 100 µM (inactive); with NCI-H522, 23 µM (inactive); in the assay on HL-60, 23.2 µM (inactive). In addition, the GI50 is 22.5 µM (inactive) in the assay with NCI-H460; 45.5 µM (inactive) in the assay with MDA-MB-435; 42.3 µM (inactive) in the assay on MDA-MB-231; 19.3 µM (inactive) in the assay with MOLT-4; > 100 µM (inactive) in the assay with A498; 15.6 µM (inactive) in the assay on RPMI-8226. The GI50 with 786-0 was 34.1 µM (inactive).
Regarding `Cc1cc(S(=O)(=O)/N=C(\NN)Nc2ccc(Cl)cc2)c(S)cc1Cl`, the GI50 is 3.06 µM (inactive) with ACHN; 3.54 µM (inactive) with IGROV-1; 10.8 µM (inactive) with HOP-62; 21.2 µM (inactive) in the assay on PC-3; 21.6 µM (inactive) in the assay with SK-MEL-28; 3.4 µM (inactive) with T47D. Moreover, the GI50 in the assay with HT-29 was 16.1 µM (inactive); in the assay with SNB-75, 6.49 µM (inactive); with SK-MEL-2 it was 19.2 µM (inactive); with NCI/ADR-RES, 2.71 µM (inactive); with NCI-H522 it was 16 µM (inactive); in the assay with HL-60 it was 6.27 µM (inactive). The GI50 with NCI-H460 is 4.46 µM (inactive); with MDA-MB-435, 8.02 µM (inactive); with MDA-MB-231 it was 20.4 µM (inactive); in the assay with MOLT-4, 2.75 µM (inactive); in the assay with A498 it was 17.1 µM (inactive); in the assay on RPMI-8226, 12.3 µM (inactive). Moreover, the GI50 with 786-0 is 6.34 µM (inactive).
Consider `COc1cc(OC2OC(CO)C(O)C(O)C2O)c2c(c1)O[C@@H]1[C@H](O)Oc3cc(OC)c(OC)cc3[C@]1(O)C2=O` (some centres undefined), for which the GI50 in the assay with ACHN, with IGROV-1, in the assay with HOP-62, in the assay with PC-3, with SK-MEL-28 and in the assay with T47D was > 25 µM (inactive) in each case. For the same compound, the GI50 with HT-29, with SNB-75, in the assay with SK-MEL-2, with NCI/ADR-RES, in the assay on NCI-H522 and with HL-60 was > 25 µM (inactive) each time. Besides, the GI50 with NCI-H460, in the assay on MDA-MB-435, in the assay with MDA-MB-231, in the assay with MOLT-4, in the assay on A498 and with RPMI-8226 was > 25 µM (inactive) throughout. The GI50 in the assay with 786-0 is > 25 µM (inactive).
